The term EC50 denotes the midpoint of the concentration-response curve.

Positions of bridges follow the written chain, without caps; N, C: chain ends. Residues, ends and D or L forms follow the SMILES beside them.

1 compound from article PMC8955854, “The Peptide Hormone CNMa Influences Egg Production in the Mosquito Aedes aegypti” (Insects, 2022) can be followed below.

One experiment concerns the target AeCNMaR-1b (AAEL018316) (Aedes aegypti, UniProt A0A1S4G7J8). In words: Receptor activation, aequorin luminescence in CHO-K1 aeq cells expressing AeCNMaR-1b. In kind it is cell-based. An excerpt: The CNMa peptide was synthesized and HPLC purified (>90% purity) by Royobiotechs (Shanghai, China) based on the published sequence of the AeCNMa peptide sequence. Both the amidated (YMSLCHFKLCNMa) and the non-amidated (YMSLCHFKLCNM) were produced with a disulfide bridge between cysteines 5 and 10. The complete coding sequence of the two putative Ae. aegypti CNMa receptors (VectorBase genes AAEL024199 and AAEL018316, which we henceforth refer to as AeCNMaR-1a and AeCNMaR-1b, respectively) were commercially synthesized (Integrated DNA Technologies) and subsequently subcloned into a pcDNA3.1+ mammalian expression vector [24]. A Chinese hamster ovary cell line stably expressing the calcium-dependent bioluminescent protein aequorin (CHO-K1 aeq) was grown in Dulbecco’s modified eagles medium: nutrient F12 (DMEM:F12) media containing 10% heat-inactivated fetal bovine serum (FBS; Wisent, St. Bruno, QC, Canada), 200 μg/mL geneticin, and an antimycotic-antibiotic mixture as described previously. […]
Other Ae. aegypti peptides used in this study included “capability” (CAPA)-1 (GPTVGLFAFPRV-NH2), CAPA-2 (pQGLVPFPRV-NH2), AedaeCAPA-pyrokinin (PK) 1 (AGNSGANSGMWFGPRL-NH2), adipokinetic/corazonin-like peptide (ACP; pQVTFSRDWNA-NH2), adipokinetic hormone (AKH) (pQLTFTPSW-NH2), and corazonin (CRZ; pQTFQYSRGWTN-NH2). […] Single concentrations of the various peptides were loaded into individual wells of white 96-well luminescence plates (Greiner Bio-One, Frickenhausen, Germany) with each peptide concentration tested in quadruplicate. CHO-K1 aeq cells expressing either of the two AeCNMa receptors or mCherry were prepared for the functional assay, as described above, and injected into each well of the 96-well luminescence plates by an automated injector unit integrated with the Synergy 2 Multi-Mode Microplate Reader (BioTek, Winooski, VT, USA). The kinetic luminescent response was measured for 10 s immediately following the application of the cells into the wells containing the different peptide treatments or the negative (i.e., BSA media alone) or positive (i.e., 50 μM ATP) controls as described previously. Data was assembled in Microsoft Excel and then analyzed in GraphPad Prism 7.02 (GraphPad Software, San Diego, CA, USA) where the dose–response curves from multiple biological replicates were used to determine the half maximal effective concentrations (EC50).

The target of another experiment is AeCNMaR-1a (AAEL024199) (Aedes aegypti, UniProt A0A6I8U3V2). In words: Receptor activation, aequorin luminescence in CHO-K1 aeq cells expressing AeCNMaR-1a. The experiment is classed as cell-based. An excerpt: The CNMa peptide was synthesized and HPLC purified (>90% purity) by Royobiotechs (Shanghai, China) based on the published sequence of the AeCNMa peptide sequence. Both the amidated (YMSLCHFKLCNMa) and the non-amidated (YMSLCHFKLCNM) were produced with a disulfide bridge between cysteines 5 and 10. The complete coding sequence of the two putative Ae. aegypti CNMa receptors (VectorBase genes AAEL024199 and AAEL018316, which we henceforth refer to as AeCNMaR-1a and AeCNMaR-1b, respectively) were commercially synthesized (Integrated DNA Technologies) and subsequently subcloned into a pcDNA3.1+ mammalian expression vector [24]. A Chinese hamster ovary cell line stably expressing the calcium-dependent bioluminescent protein aequorin (CHO-K1 aeq) was grown in Dulbecco’s modified eagles medium: nutrient F12 (DMEM:F12) media containing 10% heat-inactivated fetal bovine serum (FBS; Wisent, St. Bruno, QC, Canada), 200 μg/mL geneticin, and an antimycotic-antibiotic mixture as described previously. When cells reached 80–90% confluency, they were transfected using Lipofectamine 3000 transfection reagent following manufacturer recommendations (Life Technologies, Burlington, ON, Canada) to transiently express a mammalian construct in pcDNA3.1+ containing either of the two candidate CNMa receptors or mCherry (pcDNA3.1+ mCherry was a gift from Scott Gradia, Addgene plasmid #30125), the latter of which served as a negative control for the receptor functional assay. After 48 h following transfection, CHO-K1 aeq cells were harvested by dislodging from culture flasks using Dulbecco’s PBS containing EDTA and subsequently resuspended in receptor assay media.
Other Ae. aegypti peptides used in this study included “capability” (CAPA)-1 (GPTVGLFAFPRV-NH2), CAPA-2 (pQGLVPFPRV-NH2), AedaeCAPA-pyrokinin (PK) 1 (AGNSGANSGMWFGPRL-NH2), adipokinetic/corazonin-like peptide (ACP; pQVTFSRDWNA-NH2), adipokinetic hormone (AKH) (pQLTFTPSW-NH2), and corazonin (CRZ; pQTFQYSRGWTN-NH2). Serial dilutions of the peptide stocks were prepared in bovine serum albumin (BSA) assay media (DMEM:F12 media + 0.1% BSA + 1× antibiotic-antimycotic) to test concentrations ranging from 10 pM to 50 μM. Single concentrations of the various peptides were loaded into individual wells of white 96-well luminescence plates (Greiner Bio-One, Frickenhausen, Germany) with each peptide concentration tested in quadruplicate. CHO-K1 aeq cells expressing either of the two AeCNMa receptors or mCherry were prepared for the functional assay, as described above, and injected into each well of the 96-well luminescence plates by an automated injector unit integrated with the Synergy 2 Multi-Mode Microplate Reader (BioTek, Winooski, VT, USA). The kinetic luminescent response was measured for 10 s immediately following the application of the cells into the wells containing the different peptide treatments or the negative (i.e., BSA media alone) or positive (i.e., 50 μM ATP) controls as described previously. Data was assembled in Microsoft Excel and then analyzed in GraphPad Prism 7.02 (GraphPad Software, San Diego, CA, USA) where the dose–response curves from multiple biological replicates were used to determine the half maximal effective concentrations (EC50).

AeCNMaR-1b (AAEL018316), sequence (A0A1S4G7J8 entry or part of it): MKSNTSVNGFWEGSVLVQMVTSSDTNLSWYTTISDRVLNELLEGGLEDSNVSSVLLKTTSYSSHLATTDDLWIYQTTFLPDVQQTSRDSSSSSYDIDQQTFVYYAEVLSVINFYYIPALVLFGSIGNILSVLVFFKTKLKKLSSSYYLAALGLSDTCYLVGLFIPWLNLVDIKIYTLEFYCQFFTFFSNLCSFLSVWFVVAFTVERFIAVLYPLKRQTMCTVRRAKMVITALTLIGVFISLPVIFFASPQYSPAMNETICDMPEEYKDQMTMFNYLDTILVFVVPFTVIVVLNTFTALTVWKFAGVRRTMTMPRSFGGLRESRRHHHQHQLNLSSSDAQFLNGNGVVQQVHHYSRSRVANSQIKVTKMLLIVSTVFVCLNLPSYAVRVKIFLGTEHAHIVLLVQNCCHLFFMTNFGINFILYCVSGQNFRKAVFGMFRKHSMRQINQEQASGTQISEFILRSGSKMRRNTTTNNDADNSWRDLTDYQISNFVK
AeCNMaR-1a (AAEL024199), sequence (A0A6I8U3V2 entry or part of it): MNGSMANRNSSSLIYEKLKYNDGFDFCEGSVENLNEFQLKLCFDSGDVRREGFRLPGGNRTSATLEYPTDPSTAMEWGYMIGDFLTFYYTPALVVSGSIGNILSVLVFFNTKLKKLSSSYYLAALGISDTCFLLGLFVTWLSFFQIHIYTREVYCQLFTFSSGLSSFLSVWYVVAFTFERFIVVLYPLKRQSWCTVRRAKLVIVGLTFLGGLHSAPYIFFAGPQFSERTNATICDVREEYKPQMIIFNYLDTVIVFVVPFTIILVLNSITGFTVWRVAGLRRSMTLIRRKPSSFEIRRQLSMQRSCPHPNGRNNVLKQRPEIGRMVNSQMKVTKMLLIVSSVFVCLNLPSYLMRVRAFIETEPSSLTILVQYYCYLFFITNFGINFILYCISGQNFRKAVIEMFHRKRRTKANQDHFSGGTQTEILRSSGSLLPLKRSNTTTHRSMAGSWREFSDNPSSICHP

With `CSCC[C@H](NC(=O)[C@H](CC(N)=O)NC(=O)[C@@H]1CSSC[C@H](NC(=O)[C@H](CC(C)C)NC(=O)[C@H](CO)NC(=O)[C@H](CCSC)NC(=O)[C@@H](N)Cc2ccc(O)cc2)C(=O)N[C@@H](Cc2c[nH]cn2)C(=O)N[C@@H](Cc2ccccc2)C(=O)N[C@@H](CCCCN)C(=O)N[C@@H](CC(C)C)C(=O)N1)C(=O)O` [AeCNM, YMSLCHFKLCNM] (H-YMSLCHFKLCNM-OH; disulfide 5-10), the EC50 was 125 nM at AeCNMaR-1b (AAEL018316) and 46.3 nM at AeCNMaR-1a (AAEL024199).
